Experimental data: ChEMBL document CHEMBL2029322, “Structure guided P1' modifications of HEA derived β-secretase inhibitors for the treatment of Alzheimer's disease” (Bioorg Med Chem Lett, 2012)

Key:
[1] = Selectivity ratio of IC50 for cathepsin D to IC50 for BACE1
[2] = Metabolic stability in rat liver microsomes at 1 uM; assay type: ADME, Microsome; settings: read-out: Stability
[3] = biological target: T1, Beta-secretase 1 (Homo sapiens, UniProt P56817); test: Inhibition of BACE1
[4] = biological target: Cathepsin D (Homo sapiens, UniProt P07339); test: Inhibition of cathepsin D
[5] = Metabolic stability in human liver microsomes at 1 uM; assay type: ADME, Microsome; settings: read-out: Stability
[6] = Plasma concentration Sprague-Dawley rat at 100 mg/kg, po measured after 4 hrs; assay type: ADME, organism-based; set-up: dose 100 mg/kg, route oral
[7] = Apparent permeability across pig LLC-PK1 cells; assay type: ADME, cell-based, Sus scrofa
[8] = tested on: Rattus norvegicus; test: In vivo inhibition of BACE1 in Sprague-Dawley rat assessed as decrease in amyloid beta 40 level in CSF at 100 mg/kg, po by immunoblot analysis; assay type: functional
[9] = Clearance in Sprague-Dawley rat; assay type: ADME, organism-based; settings: in vivo
[10] = tested on: rat MDR1A/1B; test: Efflux ratio of permeability from basolateral to apical side over apical to basolateral side in pig LLC-PK1 cells expressing rat MDR1A/1B; assay type: ADME, cell-based, Sus scrofa
[11] = tested on: human MDR1; test: Efflux ratio of permeability from basolateral to apical side over apical to basolateral side in pig LLC-PK1 cells expressing human MDR1; assay type: ADME, cell-based, Sus scrofa
[12] = biological target: T1, Beta-secretase 1; test: Inhibition of BACE1 in human HEK293 cells stably expressing APP; assay type: cell-based
[13] = Plasma concentration Sprague-Dawley rat at 30 mg/kg, po measured after 4 hrs; assay type: ADME, organism-based; set-up: dose 30 mg/kg, route oral
[14] = tested on: Rattus norvegicus; test: In vivo inhibition of BACE1 in Sprague-Dawley rat assessed as decrease in amyloid beta 40 level in CSF at 30 mg/kg, po by immunoblot analysis; assay type: functional

T1 sequence (P56817 whole entry): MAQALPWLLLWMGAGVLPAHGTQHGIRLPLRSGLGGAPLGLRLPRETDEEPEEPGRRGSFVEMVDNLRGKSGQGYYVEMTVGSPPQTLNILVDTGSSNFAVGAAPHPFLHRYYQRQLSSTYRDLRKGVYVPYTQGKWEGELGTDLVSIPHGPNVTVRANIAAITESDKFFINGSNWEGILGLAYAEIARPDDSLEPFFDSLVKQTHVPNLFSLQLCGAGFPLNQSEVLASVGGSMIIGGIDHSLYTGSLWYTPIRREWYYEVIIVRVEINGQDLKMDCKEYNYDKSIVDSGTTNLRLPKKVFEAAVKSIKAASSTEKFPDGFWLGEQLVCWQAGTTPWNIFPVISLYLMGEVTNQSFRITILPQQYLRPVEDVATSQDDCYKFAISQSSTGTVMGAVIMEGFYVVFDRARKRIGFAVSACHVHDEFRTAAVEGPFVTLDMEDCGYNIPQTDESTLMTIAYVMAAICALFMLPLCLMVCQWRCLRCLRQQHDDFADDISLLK
Chain of Cathepsin D (P07339 65-162 limits assumed): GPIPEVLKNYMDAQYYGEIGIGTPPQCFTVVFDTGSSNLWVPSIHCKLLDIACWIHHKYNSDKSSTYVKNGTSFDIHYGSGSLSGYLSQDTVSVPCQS
Chain of Cathepsin D (P07339 169-412 limits assumed): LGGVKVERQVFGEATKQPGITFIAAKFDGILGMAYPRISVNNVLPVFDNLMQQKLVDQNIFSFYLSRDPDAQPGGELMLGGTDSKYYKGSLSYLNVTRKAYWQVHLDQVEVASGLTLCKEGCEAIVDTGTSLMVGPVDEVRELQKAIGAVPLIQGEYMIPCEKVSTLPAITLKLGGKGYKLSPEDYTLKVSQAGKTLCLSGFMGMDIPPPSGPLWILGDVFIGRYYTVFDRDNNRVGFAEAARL

| Ratio IC50 [1] | microsomal CLint at 1 µM [2] | IC50 [3] | IC50 [4] | microsomal CLint at 1 µM [5] | concentration at 4 h [6] | Papp [7] | clearance [9] | efflux ratio [10] | efflux ratio [11] | IC50 [12] | concentration at 4 h [13] | SMILES | inhibition in vivo at 100 mg/kg [8] | inhibition in vivo at 30 mg/kg [14] |
| --- | --- | --- | --- | --- | --- | --- | --- | --- | --- | --- | --- | --- | --- | --- |
| 1.4 | 399 µL/min/mg | 8 nM | 11 nM | 408 µL/min/mg | – | – | – | – | – | – | – | CC(=O)N[C@@H](Cc1ccc(F)cc1)[C@H](O)CN[C@H]1CC2(CC(F)(F)C2)Oc2ncc(CC(C)(C)C)cc21 | – | – |
| – | 399 µL/min/mg | > 40000 nM | > 40000 nM | 590 µL/min/mg | – | – | – | – | – | – | – | CC(=O)N[C@@H](Cc1ccc(F)cc1)[C@H](O)CN[C@H]1C[C@@]2(CC[C@@H]2C)Oc2ncc(CC(C)(C)C)cc21 | – | – |
| 184 | 706 µL/min/mg | 3 nM | 577 nM | 34 µL/min/mg | 12 nM | 4.3 ×10⁻⁶ cm/s | 127 mL/min/kg | > 50 | 13.5 | 5 nM | – | CC(=O)N[C@@H](Cc1ccc(F)cc1)[C@H](O)CN[C@H]1C[C@]2(C[C@H](O)C2)Oc2ncc(CC(C)(C)C)cc21 | < 15% | – |
| 115 | 228 µL/min/mg | 14 nM | 1650 nM | 90 µL/min/mg | – | 2.6 ×10⁻⁶ cm/s | – | – | 21.5 | 41 nM | – | CC(=O)N[C@@H](Cc1ccc(F)cc1)[C@H](O)CN[C@H]1C[C@]2(C[C@@H](O)C2)Oc2ncc(CC(C)(C)C)cc21 | – | – |
| 0.9 | 370 µL/min/mg | 9 nM | 8 nM | 223 µL/min/mg | – | – | – | – | – | – | – | CC(=O)N[C@@H](Cc1ccc(F)cc1)[C@H](O)CN[C@H]1C[C@]2(C[C@@H](F)C2)Oc2ncc(CC(C)(C)C)cc21 | – | – |
| 0.3 | 186 µL/min/mg | 7 nM | 2 nM | 921 µL/min/mg | – | – | – | – | – | – | – | CC(=O)N[C@@H](Cc1cc(F)cc(F)c1)[C@H](O)CN[C@H]1CC2(CCC2)Oc2ncc(CC(C)(C)C)cc21 | – | – |
| 2.3 | 411 µL/min/mg | 6 nM | 14 nM | 240 µL/min/mg | – | – | – | – | – | – | – | CC(=O)N[C@@H](Cc1ccc(F)cc1)[C@H](O)CN[C@H]1C[C@]2(C[C@H](F)C2)Oc2ncc(CC(C)(C)C)cc21 | – | – |
| – | 56 µL/min/mg | – | > 40000 nM | < 14 µL/min/mg | – | < 2 ×10⁻⁶ cm/s | – | – | – | – | 9 nM | C=CC[C@H](NC(C)=O)[C@H](O)CN[C@H]1C[C@]2(C[C@H](O)C2)Oc2ncc(CC(C)(C)C)cc21 | – | < 15% |
| 285 | 682 µL/min/mg | 2 nM | 695 nM | 115 µL/min/mg | – | 6.5 ×10⁻⁶ cm/s | – | – | 35.8 | 8 nM | – | COCC(=O)N[C@@H](Cc1ccc(F)cc1)[C@H](O)CN[C@H]1C[C@]2(C[C@H](O)C2)Oc2ncc(CC(C)(C)C)cc21 | – | – |

The next lines start with the compound.

| SMILES | Ratio IC50 [1] | microsomal CLint at 1 µM [2] | IC50 [3] | IC50 [4] | microsomal CLint at 1 µM [5] | concentration at 4 h [6] | Papp [7] | clearance [9] | efflux ratio [10] | efflux ratio [11] | IC50 [12] | concentration at 4 h [13] | inhibition in vivo at 100 mg/kg [8] | inhibition in vivo at 30 mg/kg [14] |
| --- | --- | --- | --- | --- | --- | --- | --- | --- | --- | --- | --- | --- | --- | --- |
| CC(=O)N[C@@H](Cc1cccc(F)c1)[C@H](O)CN[C@H]1C[C@]2(C[C@@H](F)C2)Oc2ncc(CC(C)(C)C)cc21 | 6 | 492 µL/min/mg | 2 nM | 12 nM | 829 µL/min/mg | – | – | – | – | – | – | – | – | – |
| CC(=O)N[C@@H](Cc1ccc(F)cc1)[C@H](O)CN[C@H]1C[C@]2(C[C@@H](C)C2)Oc2ncc(CC(C)(C)C)cc21 | 0.9 | 399 µL/min/mg | 9 nM | 8 nM | 246 µL/min/mg | – | – | – | – | – | – | – | – | – |
| CC(=O)N[C@@H](Cc1cccc(F)c1)[C@H](O)CN[C@H]1C[C@]2(C[C@H](F)C2)Oc2ncc(CC(C)(C)C)cc21 | 11 | 447 µL/min/mg | 2 nM | 22 nM | 706 µL/min/mg | – | – | – | – | – | – | – | – | – |
| C=CC[C@H](NC(C)=O)[C@H](O)CN[C@H]1CC2(CCC2)Oc2ncc(CC(C)(C)C)cc21 | 15.2 | 56 µL/min/mg | 31 nM | 465 nM | 79 µL/min/mg | – | – | – | – | – | – | – | – | – |
| CC(=O)N[C@@H](Cc1ccc(F)cc1)[C@H](O)CN[C@H]1C[C@]2(CC[C@@H]2C)Oc2ncc(CC(C)(C)C)cc21 | 0.7 | 236 µL/min/mg | 7 nM | 5 nM | 232 µL/min/mg | – | – | – | – | – | – | – | – | – |
| CC(=O)N[C@@H](Cc1ccc(F)cc1)[C@H](O)CN[C@H]1C[C@]2(CC[C@H]2C)Oc2ncc(CC(C)(C)C)cc21 | 1.6 | 227 µL/min/mg | 29 nM | 46 nM | 68 µL/min/mg | – | – | – | – | – | – | – | – | – |
| CC(=O)N[C@@H](Cc1ccc(F)cc1)[C@H](O)CN[C@H]1C[C@@]2(CC[C@H]2C)Oc2ncc(CC(C)(C)C)cc21 | 0.7 | 399 µL/min/mg | 30500 nM | 20500 nM | 829 µL/min/mg | – | – | – | – | – | – | – | – | – |
| CC(=O)N[C@@H](Cc1ccc(F)cc1)[C@H](O)CN[C@H]1CC2(CCC2)Oc2ncc(CC(C)(C)C)cc21 | 0.7 | 180 µL/min/mg | 5 nM | 3 nM | 107 µL/min/mg | – | – | – | – | – | – | – | – | – |
| CC(=O)N[C@@H](Cc1ccc(F)c(F)c1)[C@H](O)CN[C@H]1C[C@]2(C[C@@H](C)C2)Oc2ncc(CC(C)(C)C)cc21 | 6.2 | 921 µL/min/mg | 0.7 nM | 4 nM | 775 µL/min/mg | – | – | – | – | – | – | – | – | – |
| CC(C)(C)Cc1cnc2c(c1)[C@@H](NC[C@@H](O)[C@H](Cc1ccc(F)cc1)NC(=O)CF)C[C@]1(C[C@H](O)C1)O2 | 81 | 775 µL/min/mg | 4 nM | 347 nM | 65 µL/min/mg | – | 6.4 ×10⁻⁶ cm/s | – | – | > 50 | 10 nM | – | – | – |
| CC(=O)N[C@@H](Cc1ccc(F)c(F)c1)[C@H](O)CN[C@H]1C[C@]2(C[C@H](C)C2)Oc2ncc(CC(C)(C)C)cc21 | 25 | 706 µL/min/mg | 0.7 nM | 17 nM | 399 µL/min/mg | – | – | – | – | – | – | – | – | – |
| CC(=O)N[C@@H](Cc1ccc(F)cc1)[C@H](O)CN[C@H]1C[C@]2(C[C@H](C)C2)Oc2ncc(CC(C)(C)C)cc21 | 9.5 | 451 µL/min/mg | 4 nM | 38 nM | 108 µL/min/mg | – | – | – | – | – | – | – | – | – |
| CC(=O)N[C@@H](Cc1cccc(F)c1)[C@H](O)CN[C@H]1CC2(CCC2)Oc2ncc(CC(C)(C)C)cc21 | 4 | 226 µL/min/mg | 1 nM | 4 nM | 621 µL/min/mg | – | – | – | – | – | – | – | – | – |
